Drawing on patent US12162858B2, “Quinoline derivatives as inhibitors of AXL/MER RTK and CSF1R” (QURIENT CO., LTD., priority 2018, dated 2024), this text covers inhibition and Kd for 35 compounds.

The target in this test is CSF1R (Homo sapiens, UniProt P07333). Kind of test: KINOMEscan competition binding assay for CSF1R. The conditions noted are these: for Kd: read-out: CSF1R kinase binding activity (Kd). The arrangement: DNA tag for qPCR (not a peptide); host or cells: E. coli/T7 phage or HEK-293. In outline:
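Values are either % inhibition at 0.1 uM, relative to DMSO (100% Ctrl) and a control compound (0% Ctrl), or Kd from an 11-point 3-fold series fitted with Hill slope −1. DNA-tagged kinase binds immobilized ligand beads with compound for 1 h at room temperature, and eluted kinase is measured by qPCR.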

Setting [1] is: read-out: CSF1R kinase binding activity, Percent (%) inhibition.
[2] abbreviates: read-out: CSF1R kinase binding activity, Range.

Each structure is given as a SMILES string. Read-outs that look alike come from different tables or passages of the source. Bounds are passed on as bounds.

CSF1R, sequence (P07333 20-972): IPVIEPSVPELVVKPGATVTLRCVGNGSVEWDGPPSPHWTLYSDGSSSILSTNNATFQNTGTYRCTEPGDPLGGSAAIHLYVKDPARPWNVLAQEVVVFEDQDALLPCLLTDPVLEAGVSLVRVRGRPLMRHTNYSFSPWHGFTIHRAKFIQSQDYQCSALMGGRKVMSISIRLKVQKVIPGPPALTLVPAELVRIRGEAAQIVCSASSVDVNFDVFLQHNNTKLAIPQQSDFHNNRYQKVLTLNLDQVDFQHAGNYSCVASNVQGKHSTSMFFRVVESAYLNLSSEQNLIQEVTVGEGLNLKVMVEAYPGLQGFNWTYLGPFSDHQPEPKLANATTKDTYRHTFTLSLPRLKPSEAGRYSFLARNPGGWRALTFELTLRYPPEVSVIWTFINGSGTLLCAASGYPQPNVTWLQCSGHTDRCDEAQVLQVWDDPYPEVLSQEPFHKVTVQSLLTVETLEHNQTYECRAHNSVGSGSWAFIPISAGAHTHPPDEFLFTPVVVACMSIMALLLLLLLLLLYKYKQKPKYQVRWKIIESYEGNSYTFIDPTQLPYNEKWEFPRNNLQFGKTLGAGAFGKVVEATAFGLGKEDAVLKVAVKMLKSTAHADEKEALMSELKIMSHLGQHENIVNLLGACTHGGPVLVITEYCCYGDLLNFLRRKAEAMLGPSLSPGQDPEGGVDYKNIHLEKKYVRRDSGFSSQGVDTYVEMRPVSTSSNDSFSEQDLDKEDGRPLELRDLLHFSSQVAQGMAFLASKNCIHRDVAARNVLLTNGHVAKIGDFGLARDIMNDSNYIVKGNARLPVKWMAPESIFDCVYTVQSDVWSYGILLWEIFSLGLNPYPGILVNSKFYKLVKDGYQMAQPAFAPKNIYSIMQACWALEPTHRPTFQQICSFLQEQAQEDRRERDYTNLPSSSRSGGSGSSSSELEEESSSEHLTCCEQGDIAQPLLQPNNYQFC

For `COc1cc2nccc(Oc3ccc(NC(=O)c4nn(CC(C)C)cc4OCC(F)(F)F)cc3F)c2cc1OC` [Compound 53], the inhibition at 0.1 µM under setting [1] amounted to 71% and the inhibition at 0.1 µM under setting [2] was in the range of 50 to 80%.

As to `COc1cc2nccc(Oc3ccc(NC(=O)c4nn(CC(C)O)cc4OCC(F)(F)F)c(F)c3)c2cc1OC` (stereo not shown) [Compound 76], the inhibition at 0.1 µM is 94% under setting [1] and no less than 80% under setting [2].

Consider `COc1cc2nccc(Oc3ccc(NC(=O)c4nn(C5CCCC5)cc4OCC(F)(F)F)c(F)c3)c2cc1OC` [Compound 47], for which the inhibition at 0.1 µM under setting [1] came to 91% and the inhibition at 0.1 µM under setting [2] is no less than 80%.

Regarding `CCCn1cc(OCC(F)(F)F)c(C(=O)Nc2ccc(Oc3ccnc4cc(OC)c(OC)cc34)cc2C)n1` [Compound 27], the inhibition at 0.1 µM under setting [1] was determined as 58% and the inhibition at 0.1 µM under setting [2] fell in the range of 50 to 80%.

For the compound `CCC(=O)n1cc(OCC(F)(F)F)c(C(=O)Nc2ccc(Oc3ccnc4cc(OC)c(OC)cc34)cn2)n1` [Compound 20], the inhibition at 0.1 µM by setting is: under setting [1], 99%; under setting [2], no less than 80%.

For the compound `COc1cc2nccc(Oc3ccc(NC(=O)c4nn(CCN)cc4OCC(F)(F)F)c(F)c3)c2cc1OC` [Compound 75], the inhibition at 0.1 µM under setting [1] worked out at 57% and the inhibition at 0.1 µM under setting [2] lay within 50 to 80%.

`CCCn1cc(OCCF)c(C(=O)Nc2ccc(Oc3ccnc4cc(OC)c(OC)cc34)cn2)n1` [Compound 14]: the Kd was less than 100 nM. In addition, the inhibition at 0.1 µM under setting [1] turned out to be 98%. In addition, the inhibition at 0.1 µM under setting [2] was no less than 80%.

With `COc1cc2nccc(Oc3ccc(NC(=O)c4nc(CCC(F)(F)F)oc4CCC4CCC4)nc3)c2cc1OC` [Compound 176], the inhibition at 0.1 µM was 40% under setting [1] and less than 50% under setting [2].

As for `COc1cc2nccc(Oc3ccc(NC(=O)c4nn(C5CCOC5)cc4OCC(F)(F)F)cc3)c2cc1OC` (stereo not shown) [Compound 62], the inhibition at 0.1 µM under setting [1] is 54% and the inhibition at 0.1 µM under setting [2] is 50 to 80%.

On to `COc1cc2nccc(Oc3ccc(NC(=O)c4nn(CC5CCCC5)cc4OCC(F)(F)F)nc3)c2cc1OC` [Compound 71], for which the inhibition at 0.1 µM under setting [1] turned out to be 88% and the inhibition at 0.1 µM under setting [2] was no less than 80%.

Turning to `COc1cc2nccc(Oc3ccc(NC(=O)c4nn(CC5CC5)cc4OCC(F)(F)F)nc3)c2cc1OC` [Compound 41], the inhibition at 0.1 µM reads like this: under setting [1], 97%; under setting [2], no less than 80%.

For `COc1cc2nccc(Oc3ccc(NC(=O)c4nn(CC(C)C)cc4OCC(F)(F)F)c(F)c3)c2cc1OC` [Compound 48], the inhibition at 0.1 µM under setting [1] worked out at 82% and the inhibition at 0.1 µM under setting [2] was no less than 80%.

Turning to `COc1cc2nccc(Oc3ccc(NC(=O)c4nn(C5CC5)cc4OCC4CNC4)nn3)c2cc1OC` [Compound 172], the inhibition at 0.1 µM under setting [1] turned out to be 36% and the inhibition at 0.1 µM under setting [2] was less than 50%.

Regarding `CCn1nc(C(=O)Nc2ccc(Oc3ccnc4cc(OC)c(OC)cc34)cn2)c(OCC(F)(F)F)c1C` [Compound 1], the Kd was less than 100 nM. For the same compound, the inhibition at 0.1 µM under setting [1] amounted to 96%. Also, the inhibition at 0.1 µM under setting [2] is no less than 80%.

Consider `COc1cc2nccc(Oc3ccc(NC(=O)c4nn(CC5CCCCC5)cc4OCC(F)(F)F)nc3)c2cc1OC` [Compound 43], for which the inhibition at 0.1 µM runs as follows: under setting [1], 94%; under setting [2], no less than 80%.

Take `COc1cc2nccc(Oc3ccc(NC(=O)c4nn(CC(C)O)cc4OCC4CN(C)C4)nc3)c2cc1OC` (stereo not shown) [Compound 174]: the inhibition at 0.1 µM is 25% under setting [1] and less than 50% under setting [2].

As to `CCCn1cc(OCC(F)(F)F)c(C(=O)Nc2ccc(Oc3ccnc4cc(OC)c(OC)cc34)c(C)c2)n1` [Compound 26], the inhibition at 0.1 µM is 94% under setting [1] and no less than 80% under setting [2].

As for `COc1cc2nccc(Oc3ccc(NC(=O)c4nn(C5CCOC5)cc4OCC(F)(F)F)nc3)c2cc1OC` (stereo not shown) [Compound 13], the Kd is less than 100 nM. Besides, the inhibition at 0.1 µM under setting [1] was found to be 98%. Further, the inhibition at 0.1 µM under setting [2] is no less than 80%.

For the compound `COc1cc2nccc(Oc3ccc(NC(=O)c4nn(CCO)cc4OCC(F)(F)F)nc3)c2cc1OC` [Compound 67], the inhibition at 0.1 µM under setting [1] stood at 96% and the inhibition at 0.1 µM under setting [2] is no less than 80%.

Regarding `COCCn1cc(OCC(F)(F)F)c(C(=O)Nc2ccc(Oc3ccnc4cc(OC)c(OC)cc34)cc2F)n1` [Compound 49], the inhibition at 0.1 µM is 66% under setting [1] and 50 to 80% under setting [2].

Consider `COc1cc2nccc(Oc3ccc(NC(=O)c4nn(C5CCNC5)cc4OCC(F)(F)F)nc3)c2cc1OC` (stereo not shown) [Compound 70], for which the inhibition at 0.1 µM under setting [1] is 79% and the inhibition at 0.1 µM under setting [2] is 50 to 80%.

With `COc1cc2nccc(Oc3ccc(NC(=O)c4nn(CCCN)cc4OCC(F)(F)F)nc3)c2cc1OC` [Compound 68], the inhibition at 0.1 µM under setting [1] amounted to 98% and the inhibition at 0.1 µM under setting [2] is no less than 80%.

For `COc1cc2nccc(Oc3ccc(NC(=O)c4nn(CCO)cc4OCC(F)(F)F)cc3F)c2cc1OC` [Compound 51], the inhibition at 0.1 µM reads like this: under setting [1], 82%; under setting [2], no less than 80%.

In the case of `COc1cc2nccc(Oc3ccc(NC(=O)c4nn(C(C)(C)C)cc4OCC(F)(F)F)nc3)c2cc1OC` [Compound 22], the inhibition at 0.1 µM was 93% under setting [1] and no less than 80% under setting [2].

Turning to `COc1cc2nccc(Oc3ccc(NC(=O)c4nn(CC(C)O)cc4OCC(F)F)nc3)c2cc1OC` (stereo not shown) [Compound 175], the inhibition at 0.1 µM is, setting by setting: under setting [1], 97%; under setting [2], no less than 80%.

For the compound `COc1cc2nccc(Oc3ccc(NC(=O)c4nn(C5CCCC5)cc4OCC(F)(F)F)cc3)c2cc1OC` [Compound 60], the inhibition at 0.1 µM is, setting by setting: under setting [1], 75%; under setting [2], 50 to 80%.

Regarding `COCCOc1cn(C2CC2)nc1C(=O)Nc1ccc(Oc2ccnc3cc(OC)c(OC)cc23)nn1` [Compound 171], the inhibition at 0.1 µM is 60% under setting [1] and 50 to 80% under setting [2].

For the compound `COc1cc2nccc(Oc3ccc(NC(=O)c4nn(C)cc4OCC(F)(F)F)c(F)c3)c2cc1OC` [Compound 45], the inhibition at 0.1 µM is, setting by setting: under setting [1], 93%; under setting [2], no less than 80%.

As for `COc1cc2nccc(Oc3ccc(NC(=O)c4nn(CCO)cc4OCC(F)(F)F)cc3)c2cc1OC` [Compound 59], the inhibition at 0.1 µM reads like this: under setting [1], 82%; under setting [2], no less than 80%.

Turning to `CCCn1cc(OCC2CCC2)c(C(=O)Nc2ccc(Oc3ccnc4cc(OC)c(OC(F)(F)F)cc34)cn2)n1` [Compound 167], the inhibition at 0.1 µM under setting [1] turned out to be 0% and the inhibition at 0.1 µM under setting [2] is less than 50%.

In the case of `COc1cc2nccc(Oc3ccc(NC(=O)c4nn(CC5CCC5)cc4OCC(F)(F)F)nc3)c2cc1OC` [Compound 42], the inhibition at 0.1 µM reads like this: under setting [1], 95%; under setting [2], no less than 80%.

In the case of `CCCn1cc(OCC(F)(F)F)c(C(=O)Nc2ccc(Oc3ccnc4cc(OC)c(OC)cc34)nn2)n1` [Compound 32], the inhibition at 0.1 µM by setting is: under setting [1], 95%; under setting [2], no less than 80%.

Take `COc1cc2nccc(Oc3ccc(NC(=O)c4nn(C5CCCCC5)cc4OCC(F)(F)F)nc3)c2cc1OC` [Compound 69]: the inhibition at 0.1 µM under setting [1] amounted to 89% and the inhibition at 0.1 µM under setting [2] is no less than 80%.

Regarding `COc1cc2nccc(Oc3ccc(NC(=O)c4nn(CCC(F)(F)F)cc4OCC4CCC4)nc3)c2cc1OC` [Compound 166], the inhibition at 0.1 µM is, setting by setting: under setting [1], 84%; under setting [2], no less than 80%.

Consider `COc1cc2nccc(Oc3ccc(NC(=O)c4nn(CC(C)(F)F)cc4OCC(F)(F)F)nc3)c2cc1OC` [Compound 64], for which the inhibition at 0.1 µM reads like this: under setting [1], 95%; under setting [2], no less than 80%.

What is called Kd is the constant that tells how readily two partners part at equilibrium.
